Data taken from ChEMBL document CHEMBL1139779, “3,3-diphenylpentane skeleton as a steroid skeleton substitute: novel inhibitors of human 5alpha-reductase 1” (Bioorg Med Chem Lett, 2007).

T1: 3-oxo-5-alpha-steroid 4-dehydrogenase 1 (Homo sapiens) (UniProt P18405)
T1 sequence (whole entry): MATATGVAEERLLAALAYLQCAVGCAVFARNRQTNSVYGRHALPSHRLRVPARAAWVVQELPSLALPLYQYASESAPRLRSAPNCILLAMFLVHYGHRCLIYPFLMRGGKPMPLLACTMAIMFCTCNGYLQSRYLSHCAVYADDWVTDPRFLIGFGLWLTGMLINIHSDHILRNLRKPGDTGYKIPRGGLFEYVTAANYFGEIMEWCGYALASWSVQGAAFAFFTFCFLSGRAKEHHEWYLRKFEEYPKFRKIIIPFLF

T2: 3-oxo-5-alpha-steroid 4-dehydrogenase 1 (Homo sapiens, UniProt P18405)
T2 sequence (P18405 whole entry): T1 sequence (whole entry)

B1: 3-oxo-5-alpha-steroid 4-dehydrogenase 1 (Homo sapiens), P18405 (protein)
chain: T1 sequence (whole entry)

Legend:
[1] = molecular target: T1, 3-oxo-5-alpha-steroid 4-dehydrogenase 1 (Homo sapiens); test: Inhibition of human 5-alpha reductase 1 expressed in LNCap cells at 10 uM; assay type: cell-based
[2] = molecular target: T2, 3-oxo-5-alpha-steroid 4-dehydrogenase 1; test: Inhibition of human 5-alpha reductase 1 expressed in LNCap cells; assay type: cell-based
[3] = molecular target: T1, 3-oxo-5-alpha-steroid 4-dehydrogenase 1 (Homo sapiens); test: Inhibition of human 5-alpha reductase 1 expressed in LNCap cells at 1 uM; assay type: cell-based
[4] = substrate: CCC(CC)(c1ccc(OC(=O)N(Cc2ccccc2)Cc2ccccc2)cc1)c1ccc(N(C)C(C)=O)cc1; test: Activity of 5-alpha reductase 1 at 1 uM

| Molecule | inhibition [1] [%] | other results |
| --- | --- | --- |
| CCN(CC)C(=O)Oc1ccc(C2(c3ccc(N(C)C(C)=O)cc3)CCCC2)cc1 | 5 | – |
| CCN(CC)C(=O)Oc1ccc(C2(c3ccc(N(C)C(C)=O)cc3)CCC2)cc1 | 16 | – |
| CCC(CC)(c1ccc(OC(=O)N2CCCCCC2)cc1)c1ccc(N(C)C(C)=O)cc1 | 70 | IC50 [2]: 4.7 µM |
| CCC(CC)(c1ccc(OC(=O)N2CCN(C)CC2)cc1)c1ccc(N(C)C(C)=O)cc1 | 17 | – |
| CCC(CC)(c1ccc(OC(=O)N2CCCCCCC2)cc1)c1ccc(N(C)C(C)=O)cc1 | – | inhibition [3]: 20% |
| CCN(CC)C(=O)Oc1ccc(C2(c3ccc(N(C)C(C)=O)cc3)CCCCC2)cc1 | 46 | – |
| CCN(CC)C(=O)Oc1ccc(C(CC)(CC)c2ccc(N(C)C(C)=O)c(C)c2)cc1C | 22 | – |
| CCC(CC)(c1ccc(OC(=O)N(Cc2ccccc2)Cc2ccccc2)cc1)c1ccc(N(C)C(C)=O)cc1 | – | IC50 [2]: 0.84 µM; inhibition [3]: 51% |
| CCN(CC)C(=O)Oc1ccc(C(CC)(CC)c2ccc(NC(C)=O)c(C)c2)cc1C | 17 | – |
| CCCN(CCC)C(=O)Oc1ccc(C(CC)(CC)c2ccc(N(C)C(C)=O)cc2)cc1 | 77 | IC50 [2]: 2.9 µM; inhibition [3]: 26% |
| CCN(CC)C(=O)Oc1ccc(C(CC)(CC)c2ccc(N(C)C(C)=O)cc2)cc1 | 65 | IC50 [2]: 9.2 µM |
| CCN(CC)C(=O)Oc1ccc(C2(c3ccc(N(C)C(C)=O)cc3)CCCCCC2)cc1 | 25 | – |
| CCN(CC)C(=O)Oc1ccc(C(CC)(CC)c2ccc(N(C)C(C)=O)c(C)c2)cc1 | 25 | – |
| CCC(CC)(c1ccc(OC(=O)N(C)C)cc1)c1ccc(N(C)C(C)=O)cc1 | 29 | – |
| CCN(CC)C(=O)Oc1ccc(C(C)(C)c2ccc(N(C)C(C)=O)cc2)cc1 | 16 | – |
| CCC(C)N(C(=O)Oc1ccc(C(CC)(CC)c2ccc(N(C)C(C)=O)cc2)cc1)C(C)CC (configuration not stated) | – | inhibition [3]: 22% |
| CCCCN(CCCC)C(=O)Oc1ccc(C(CC)(CC)c2ccc(N(C)C(C)=O)cc2)cc1 | – | inhibition [3]: 32% |
| CCC(CC)(c1ccc(OC(=O)N2CCCC2)cc1)c1ccc(N(C)C(C)=O)cc1 | 57 | – |
| CCN(CC)C(=O)Oc1ccc(C(CC)(CC)c2ccc(N(C)C(C)=O)cc2)cc1C | 56 | – |
| CCC(CC)(c1ccc(OC(=O)N(C(C)C)C(C)C)cc1)c1ccc(N(C)C(C)=O)cc1 | 72 | IC50 [2]: 4 µM |
| CCCC(CCC)(c1ccc(OC(=O)N(CC)CC)cc1)c1ccc(N(C)C(C)=O)cc1 | 27 | – |
| CCC(CC)(c1ccc(OC(=O)N2CCCCC2)cc1)c1ccc(N(C)C(C)=O)cc1 | 68 | IC50 [2]: 4.7 µM |
| CCC(CC)(c1ccc(OC(=O)N2CCOCC2)cc1)c1ccc(N(C)C(C)=O)cc1 | 15 | – |
| B1 | – | Km [4]: 9.1 µM; Vmax [4]: 13.4 nM/h |
